Results published in the NIST ThermoML archive (doi:10.1016/j.jct.2004.11.016).

Test: xn = mol fraction of the nth substance listed
Conditions: Liquid; for mass density: 101.3 kPa; for viscosity: 101 kPa

CN(C)CCO [2-(N,N-dimethylamino)ethanol] + O
Conditions	mass density, 293.15 K [kg/m3]	mass density, 298.15 K [kg/m3]	mass density, 303.15 K [kg/m3]	mass density, 308.15 K [kg/m3]	mass density, 313.15 K [kg/m3]	mass density, 318.15 K [kg/m3]	mass density, 323.15 K [kg/m3]	viscosity, 313.15 K [mPa·s]	viscosity, 323.15 K [mPa·s]
x1 = 0.0121	996.588	995.282	993.747	991.994	989.83	986.678	–	–	–
x1 = 0.0218	995.236	993.748	992.024	990.035	987.566	985.311	–	–	–
x1 = 0.0252	994.947	993.401	991.591	989.243	986.624	–	–	–	–
x1 = 0.0359	994.033	992.24	990.239	988.048	985.713	983.206	–	–	–
x1 = 0.0617	992.027	989.74	987.103	984.421	981.605	978.661	975.591	–	–
x1 = 0.1009	988.909	985.747	982.49	979.144	975.714	972.197	968.595	2.669	1.957
x1 = 0.2017	973.822	969.911	965.929	961.896	957.808	953.663	949.451	5.071	3.487
x1 = 0.3033	956.823	952.768	948.646	944.47	940.237	935.946	931.598	6.593	4.435
x1 = 0.4051	941.071	936.991	932.844	928.641	924.379	920.062	915.685	6.58	4.433
x1 = 0.5077	927.808	923.722	919.567	915.367	911.114	906.806	902.436	5.885	4.044
x1 = 0.6099	916.51	912.41	908.259	904.055	899.803	895.501	891.144	4.784	3.393
x1 = 0.7652	903.034	898.903	894.723	890.503	886.233	881.923	877.562	3.467	2.573
x1 = 0.895	894.185	889.991	885.767	881.507	877.213	872.876	–	2.72	2.089
x1 = 1	887.816	883.578	879.315	875.017	870.686	866.316	–	2.238	1.756
